Results published in patent US8247211B2, “Glycopeptide antibiotics” (American Cyanamid Company, priority 2001, dated 2012).
≈ marks a conversion by molar mass, not a printed value. Numbered stars: 1 amine (or outer) side, 2 acyl side, 3 side chain; on linkers, the order of the positions; unused ones are H or OH. Square brackets hold non-standard residues; d marks the D form. Peptide text beside a SMILES is read from it. * marks the point of attachment. ξ: configuration not given here. X1 = N=C1NCC(C(O)C(N[*:1])C(=O)[*:2])N1C1OC(CO)C(O)C(O)C1O; ξEnduracididine(βξ-OH,4'ξ) = N=C1NCC(C(O)C(N)C(=O)O)N1; ξPhe(4-Cl,βξ-Me) = CC(c1ccc(Cl)cc1)C(N)C(=O)O; X2 = OCC1OC(OC2C(CO)OC(*)C(O)C2O)C(O)C(O)C1O

Assays:
Test in all cases: In vitro antibacterial evaluation: minimum inhibitory concentration (MIC), broth dilution method
Format in all cases: cell-based
Enterococcus sp. = conditions: Enterococcus avium (GC 4558); 18 hours at 35° C.
Description: (§1) The minimum inhibitory concentration (MIC), the lowest concentration of the antibiotic which inhibits growth of the test organism, is determined by the broth dilution method using Muller-Hinton II […] (Baltimore Biological Laboratories) following the recommendations of the National Committee for Clinical Laboratory Standards [Methods for dilution antimicrobial susceptibility tests for bacteria that grow aerobically, approved standard M7-A2, National Committee for Clinical Laboratory Standards, Villanova, Pa].
(§2) An inoculum level of 5×10^5 CFU/mL, and a range of antibiotic concentrations (64-0.06 μg/mL) is used. […] The test organisms include a spectrum of Gram-positive bacteria comprised of Staphylococcus sp., Streptococcus sp. and Enterococcus sp. These organisms include recent clinical isolates that are resistant to methicillin, penicillin and/or vancomycin.

Streptococcus sp. = conditions: 18 hours at 35° C.
Description: as §1, §2

Escherichia coli = Escherichia coli (GC 4560)
Description: as §1, §2

Staphylococcus sp. = conditions: 18 hours at 35° C.
Description: as §1, §2

## CC(c1ccccc1)C1NC(=O)CNC(=O)C(CO)NC(=O)C(CC2CNC(=N)N2C2OC(CO)C(O)C(O)C2O)NC(=O)C(CC2CNC(=N)N2)NC(=O)C(Cc2ccc(OC3OC(CO)C(OC4OC(CO)C(O)C(O)C4OCc4ccc(OCc5ccccc5)cc4)C(O)C3O)cc2)NC1=O (stereo not shown) [Example 246c]
Enterococcus sp.
  MIC Enterococcus avium (GC 4558): 64 µg/mL (≈ 43.8 µM)
Streptococcus sp.; Streptococcus pneumoniae (GC 1894)
  MIC Streptococcus pneumoniae (GC 1894): 64 µg/mL (≈ 43.8 µM)
Streptococcus sp.; broth dilution, inoculum 5×10^5 CFU/mL
  MIC Streptococcus pneumoniae (GC 1894): 64 µg/mL (≈ 43.8 µM)
Escherichia coli; 18 hours at 35° C.
  MIC Escherichia coli (GC 4560): 32 µg/mL (≈ 21.9 µM)

## CC(c1ccc(Cl)cc1)C1NC(=O)CNC(=O)C(CO)NC(=O)C(C(O)C2CNC(=N)N2C2OC(CO)C(O)C(O)C2O)NC(=O)C(C(O)C2CNC(=N)N2)NC(=O)C(Cc2ccc(OC3OC(CO)C(OC4OC(CO)C(O)C(O)C4O)C(O)C3O)cc2)NC1=O (stereo not drawn) [Example 262a, Cyclo[glycyl-4-chloro-β-methylphenylalanyl-O-(4-O-hexopyranosylhexopyranosyl)tyrosyl-3-(2-iminoimidazolidin-4-yl)seryl-3-(3-hexopyranosyl-2-iminoimidazolidin-4-yl)serylseryl]] (cyclo(G[ξPhe(4-Cl,βξ-Me)]Y(X2)[ξEnduracididine(βξ-OH,4'ξ)][X1]S); configuration not given here)
Streptococcus sp.; Streptococcus agalactiae (GC 4564)
  MIC Streptococcus agalactiae (GC 4564): 32 µg/mL (≈ 24.1 µM)
Streptococcus sp.; Streptococcus pyogenes (ID-3187)
  MIC Streptococcus pyogenes (ID-3187): 32 µg/mL (≈ 24.1 µM)
Escherichia coli
  MIC Escherichia coli (GC 4560): 16 µg/mL (≈ 12 µM)
Staphylococcus sp.
  MIC Coagulase Negative Staphylococcus (GC 4547): 64 µg/mL (≈ 48.1 µM)
  MIC Coagulase Negative Staphylococcus (GC 4548): 64 µg/mL (≈ 48.1 µM)
  MIC Coagulase Negative Staphylococcus (GC 4549): 16 µg/mL (≈ 12 µM)
  MIC Staphylococcus aureus (ATCC 29213): 64 µg/mL (≈ 48.1 µM)
  MIC Staphylococcus aureus (GC 4541): 64 µg/mL (≈ 48.1 µM)
  MIC Staphylococcus aureus (GC 4544): 64 µg/mL (≈ 48.1 µM)
  MIC Staphylococcus aureus (GC 4545): 64 µg/mL (≈ 48.1 µM)
  MIC Staphylococcus aureus-SMITH (GC 4543): 64 µg/mL (≈ 48.1 µM)
  MIC Staphylococcus haemolyticus (GC 4546): 64 µg/mL (≈ 48.1 µM)
Staphylococcus sp.; broth dilution
  MIC Coagulase Negative Staphylococcus (GC 4547): 64 µg/mL (≈ 48.1 µM)
  MIC Coagulase Negative Staphylococcus (GC 4548): 64 µg/mL (≈ 48.1 µM)
  MIC Coagulase Negative Staphylococcus (GC 4549): 16 µg/mL (≈ 12 µM)
  MIC Staphylococcus aureus (ATCC 29213): 64 µg/mL (≈ 48.1 µM)
  MIC Staphylococcus aureus (GC 4541): 64 µg/mL (≈ 48.1 µM)
  MIC Staphylococcus aureus (GC 4544): 64 µg/mL (≈ 48.1 µM)
  MIC Staphylococcus aureus (GC 4545): 64 µg/mL (≈ 48.1 µM)
  MIC Staphylococcus aureus-SMITH (GC 4543): 64 µg/mL (≈ 48.1 µM)
  MIC Staphylococcus haemolyticus (GC 4546): 64 µg/mL (≈ 48.1 µM)
